{"source": "patent US6803379B2", "about": "“PHARMACOLOGICAL AGENTS AND METHODS OF TREATMENT THAT INACTIVATE PATHOGENIC PROKARYOTIC AND EUKARYOTIC CELLS AND VIRUSES BY ATTACKING HIGHLY CONSERVED DOMAINS IN STRUCTURAL METALLOPROTEIN AND METALLOENZYME TARGETS” (priority 2002, dated 2004)", "key": {"virally infected cells": {"test_system": "virally infected cells", "test": "Activity against virally infected cells relative to 2-thiophenecarboxylic acid", "type": "cell-based"}, "[1]": {"test_system": "cancer cells in tissue culture", "test": "Activity against cancer cells in tissue culture relative to 2-thiophenecarboxylic acid"}, "CHO cells [2]": {"test_system": "CHO cells", "test": "Growth of CHO cells (cell counts at 24, 48 and 72 h)", "conditions": "for inhibition at 3000 µM / inhibition at 10000 µM / inhibition at 1000 µM: Cricetulus griseus, CHO, read-out: growth inhibition; for time within which growth was strongly inhibited: 1 mM and 3 mM", "experimental": "Cells were plated at 1.5×10^5 cells/60-mm dish; 24 hours later, the medium was removed, and new media with or without 0.05 to 10 mM final concentrations of 2-Furoic acid were added. Cell counts were determined at 24, 48 and 72 h after the addition of 2-Furoic acid; each point is the average of triplicate measurements from 3 cultures."}, "CHO cells [3]": {"test_system": "CHO cells"}, "LD-50": {"test": "LD-50", "conditions": "in vivo"}, "[4]": {"test_system": "many different cancer cell lines", "test": "Cytotoxicity in cancer cell lines in vitro", "conditions": "uM concentrations"}, "[5]": {"test_system": "human breast adenocarcinoma MDA-468 cell", "test": "Growth and viability of breast adenocarcinoma MDA-468 cells", "type": "cell-based", "conditions": "50 μM", "method": "These floating cells were not viable. Within 48 h of treatment there was greater than 90% decrease in cell number."}, "LTA4 hydrolase": {"molecular_target": "LTA4 hydrolase (Homo sapiens, UniProt P09960)", "sequence (P09960 whole entry)": "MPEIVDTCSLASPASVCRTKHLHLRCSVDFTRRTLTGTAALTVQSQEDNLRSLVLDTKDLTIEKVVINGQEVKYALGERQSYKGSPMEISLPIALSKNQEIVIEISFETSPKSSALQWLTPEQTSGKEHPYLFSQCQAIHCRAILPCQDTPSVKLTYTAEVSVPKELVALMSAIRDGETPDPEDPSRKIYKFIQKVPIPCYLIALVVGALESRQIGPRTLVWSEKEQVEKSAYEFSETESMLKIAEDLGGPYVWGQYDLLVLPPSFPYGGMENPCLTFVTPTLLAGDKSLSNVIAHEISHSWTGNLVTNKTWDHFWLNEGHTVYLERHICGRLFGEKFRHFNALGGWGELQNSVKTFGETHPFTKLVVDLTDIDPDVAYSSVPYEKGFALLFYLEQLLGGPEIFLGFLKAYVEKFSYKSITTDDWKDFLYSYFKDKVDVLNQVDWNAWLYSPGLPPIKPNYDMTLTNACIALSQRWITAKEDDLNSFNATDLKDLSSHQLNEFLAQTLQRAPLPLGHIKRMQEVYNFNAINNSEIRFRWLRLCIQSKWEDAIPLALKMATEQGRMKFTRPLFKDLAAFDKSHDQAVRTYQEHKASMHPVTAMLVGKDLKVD", "conditions": "cited from earlier work"}, "[6]": {"test_system": "Human Foreskin (HF) cells infected with HSV-2-strain G", "type": "cell-based"}}, "note": "Where a name gives a salt, the structure may show the parent alone. Read-outs that look alike come from different tables or passages of the source."}
{"molecule": "CCCCc1csc(C(=O)NN)c1Cl", "values": [{"measurement": "times more active than 2-thiophenecarboxylic acid", "setting": "virally infected cells", "result": "7-10 times"}, {"measurement": "times more active than 2-thiophenecarboxylic acid", "setting": "[1]", "result": "7-10 times"}]}
{"molecule": "O=C(O)c1ccco1", "note": "[2-Furoic acid]", "values": [{"measurement": "time within which growth was inhibited in a dose-dependent fashion", "setting": "CHO cells [2]; CHO cells, 3 to 10 mM", "result": "≤ 24", "unit": "h"}, {"measurement": "inhibition at 3000 µM", "setting": "CHO cells [2]; 72 h", "result": "~20", "unit": "%"}, {"measurement": "inhibition at 10000 µM", "setting": "CHO cells [2]; 72 h", "result": "~40", "unit": "%"}, {"measurement": "toxic effects on the cells", "setting": "CHO cells [3]", "result": "no significant toxic effects"}]}
{"molecule": "NNC(=O)c1cccs1", "note": "[2-TCAH, 2-thiophenecarboxylic acid hydrazide]", "values": [{"measurement": "time within which growth was inhibited in a dose-dependent fashion", "setting": "CHO cells [2]; CHO cells", "result": "≤ 24", "unit": "h"}, {"measurement": "inhibition at 1000 µM", "setting": "CHO cells [2]; 72 h", "result": "~65", "unit": "%"}, {"measurement": "inhibition at 10000 µM", "setting": "CHO cells [2]; 72 h", "result": "~90", "unit": "%"}, {"measurement": "toxic effects on the cells", "setting": "CHO cells [3]", "result": "significant toxic effects"}]}
{"molecule": "O=C(O)c1cccs1", "note": "[2-TH acid, 2-thiophenecarboxylic acid]", "values": [{"measurement": "LD-50", "setting": "LD-50", "result": 30, "unit": "grams/70 Kg"}]}
{"molecule": "O=C(O)c1oc(Cl)c(Cl)c1Cl", "note": "[3,4,5-TFA, 3,4,5-Trichloro-2-Furoic acid]", "values": [{"measurement": "time within which growth was strongly inhibited", "setting": "CHO cells [2]; CHO cells", "result": "≤ 12", "unit": "h"}, {"measurement": "inhibition at 1000 µM", "setting": "CHO cells [2]", "result": "> 80", "unit": "%"}, {"measurement": "inhibition at 3000 µM", "setting": "CHO cells [2]", "result": "> 99", "unit": "%"}, {"measurement": "cytotoxicity and cell death, share of CHO cells", "setting": "CHO cells [3]; Chinese hamster, 3 mM", "result": "greater than 99%"}]}
{"molecule": "NN.O=C(O)c1sc(Cl)c(Cl)c1Cl", "note": "[3,4,5-TTAH]", "values": [{"measurement": "growth of CHO cells", "setting": "CHO cells [2]; 500 uM", "result": "strongly inhibited"}, {"measurement": "cytotoxicity and cell death, share of CHO cells", "setting": "CHO cells [3]; 500 uM, 24-72 hours exposure", "result": "greater than 95%"}, {"measurement": "detached cells destroyed by the agent", "setting": "CHO cells [3]; 500 uM, 72 h, trypan blue dye exclusion test", "result": "> 99.9", "unit": "%"}]}
{"molecule": "O=C(O)c1sc(Cl)c(Cl)c1Cl", "note": "[3,4,5-TTA]", "values": [{"measurement": "time within which growth was strongly inhibited", "setting": "CHO cells [2]; CHO cells", "result": "≤ 6", "unit": "h"}, {"measurement": "inhibition at 1000 µM", "setting": "CHO cells [2]", "result": "> 98", "unit": "%"}, {"measurement": "inhibition at 3000 µM", "setting": "CHO cells [2]", "result": 100, "unit": "%"}]}
{"molecule": "CCCCc1csc(C(=O)NN)c1", "note": "[4-B-2-TAH, 4-butyl-2-Thiophenecarboxylic Acid Hydrazide]", "values": [{"measurement": "cytotoxic effects", "setting": "[4]", "result": "pronounced cytotoxic effects"}, {"measurement": "cell number", "setting": "[5]; after 12 hours of treatment", "result": "no further increase in cell number"}, {"measurement": "decrease in cell number", "setting": "[5]; within 48 h of treatment", "result": "greater than 90%"}]}
{"molecule": "C[C@H](CS)C(=O)N1CCC[C@H]1C(=O)O", "note": "[Captopril]", "values": [{"measurement": "inhibition of LTA4 hydrolase, concentration range", "setting": "LTA4 hydrolase", "result": "low uM range"}]}
{"molecule": "c1ccsc1", "note": "[Thiophene, reference compound]", "values": [{"measurement": "effect on cell growth", "setting": "CHO cells [2]; CHO cells, analog tested at 0.05 to 10 mM, up to 72 h", "result": "no significant effect on cell growth"}]}
{"molecule": "O=C(O)c1ccccn1", "note": "[picolinic acid]", "values": [{"measurement": "effect on infected cells", "setting": "[6]", "result": "cause apoptosis of HF infected cells"}]}
